Test results taken from PubChem BioAssay AID330 (DTP/NCI, 2004).
Several values for one entry are separate records, joined by “and”; a condition that tells them apart may be missing. Equal values may be shown once. Toxic doses and inconclusive results are not listed. Numbered stars: 1 amine (or outer) side, 2 acyl side, 3 side chain; on linkers, the order of the positions; unused ones are H or OH. Square brackets hold non-standard residues; d marks the D form. Peptide text beside a SMILES is read from it. X9 = C=CCC(O[*:1])C(=O)[*:2]; NMeV = CN[CH](C(=O)O)C(C)C; NMeA = CN[CH](C)C(=O)O; βAla = NCCC(=O)O

System: P388 leukemia ip, CD2F1 mice, survival T/C
Test: NCI In Vivo Anticancer Drug Screen. Data for tumor model P388 Leukemia (intraperitoneal) in CD2F1 (CDF1) mice
Details: endpoint: median survival time, higher = longer survival
Protocol: The antitumor activity of compounds was measured in mice bearing transplantable tumors. Survival or tumor size were measured and the results are expressed as the measurement made in the treated group (T) divided by the measurement made in the vehicle treated control group (C). The tumor model used in this assay is P388 Leukemia (intraperitoneal) in CD2F1 (CDF1) mice

[1] = dose: 50.0 mg/kg/injection, schedule: Q01DX009 (ip), vehicle: Klucel (hydroxypropylcellulose) (HPC)
[2] = dose: 100.0 mg/kg/injection, schedule: Q01DX009 (ip), vehicle: Klucel (hydroxypropylcellulose) (HPC)
[3] = dose: 200.0 mg/kg/injection, schedule: Q01DX009 (ip), vehicle: Klucel (hydroxypropylcellulose) (HPC)
[4] = dose: 100.0 mg/kg/injection, schedule: Q01DX009 (ip), vehicle: saline with Tween-80
[5] = dose: 200.0 mg/kg/injection, schedule: Q01DX009 (ip), vehicle: saline with Tween-80
[6] = dose: 12.5 mg/kg/injection, schedule: Q01DX005 (ip), vehicle: saline with Tween-80
[7] = dose: 25.0 mg/kg/injection, schedule: Q01DX005 (ip), vehicle: saline with Tween-80
[8] = dose: 50.0 mg/kg/injection, schedule: Q01DX005 (ip), vehicle: saline with Tween-80
[9] = dose: 100.0 mg/kg/injection, schedule: Q01DX005 (ip), vehicle: saline with Tween-80
[10] = dose: 50.0 mg/kg/injection, schedule: Q01DX009 (ip), vehicle: saline with Tween-80

ClC(Cl)(Cl)C(c1cccs1)c1cccs1
T/C [1]: 103 % of control
T/C [2]: 100 % of control
T/C [3]: 109 % of control
T/C (dose: 400.0 mg/kg/injection, schedule: Q01DX009 (ip), vehicle: Klucel (hydroxypropylcellulose) (HPC)): 104 % of control

Cc1ccc(NC(=S)SCc2ccc(Cl)cc2)cc1Br
T/C [1]: 105 % of control and 123 % of control
T/C (dose: 50.0 mg/kg/injection, schedule: Q01DX009 (ip), vehicle: suspension in saline): 109 % of control
T/C [2]: 114 % of control
T/C (dose: 100.0 mg/kg/injection, schedule: Q01DX009 (ip), vehicle: suspension in saline): 104 % of control
T/C [3]: 121 % of control and 122 % of control
T/C (dose: 200.0 mg/kg/injection, schedule: Q01DX009 (ip), vehicle: suspension in saline): 90 % of control

CCOC(=O)C(=O)N1c2c(nc(N)[nH]c2=O)NCC1CNc1ccc(C(=O)NC(CCC(=O)O)C(=O)O)cc1 (centres undefined) (tested in a mixture with another compound)
T/C (dose: 50.0 mg/kg/injection, schedule: Q01DX001 (ip), vehicle: saline): 111 % of control
T/C (dose: 100.0 mg/kg/injection, schedule: Q01DX001 (ip), vehicle: saline): 101 % of control
T/C (dose: 200.0 mg/kg/injection, schedule: Q01DX001 (ip), vehicle: saline): 101 % of control

Nc1c(Cl)cc(Cl)cc1Cl
T/C (dose: 100.0 mg/kg/injection, schedule: Q04DX003 (ip), vehicle: alcohol): 108 % of control
T/C (dose: 200.0 mg/kg/injection, schedule: Q04DX003 (ip), vehicle: alcohol): 100 % of control
T/C (dose: 400.0 mg/kg/injection, schedule: Q04DX003 (ip), vehicle: alcohol): 100 % of control

Nc1nc(SC2CCCCC2)c2[nH]cnc2n1
T/C [4]: 90 % of control
T/C (dose: 100.0 mg/kg/injection, schedule: Q04DX003 (ip), vehicle: saline with Tween-80): 100 % of control
T/C [5]: 95 % of control
T/C (dose: 200.0 mg/kg/injection, schedule: Q04DX003 (ip), vehicle: saline with Tween-80): 116 % of control
T/C (dose: 400.0 mg/kg/injection, schedule: Q01DX009 (ip), vehicle: saline with Tween-80): 90 % of control
T/C (dose: 400.0 mg/kg/injection, schedule: Q04DX003 (ip), vehicle: saline with Tween-80): 108 % of control

C[N+]1(CI)CC2CC(C1)C[N+](C)(CI)C2 (centres undefined)
T/C (dose: 12.5 mg/kg/injection, schedule: Q01DX009 (ip), vehicle: saline): 105 % of control
T/C (dose: 25.0 mg/kg/injection, schedule: Q01DX009 (ip), vehicle: saline): 110 % of control
T/C (dose: 50.0 mg/kg/injection, schedule: Q01DX009 (ip), vehicle: saline): 108 % of control

CCN(CC)CCC(=O)c1ccc(Cl)c2ccccc12
T/C (dose: 6.25 mg/kg/injection, schedule: Q01DX005 (ip), vehicle: saline with Tween-80): 101 % of control
T/C [6]: 93 % of control
T/C [7]: 99 % of control and 104 % of control
T/C [8]: 109 % of control
T/C [9]: 93 % of control

CCOc1c(N=Nc2ccc(OC)cc2)c(C)nn1C(N)=S
T/C (dose: 15.0 mg/kg/injection, schedule: Q01DX005 (ip), vehicle: Klucel + Tween-80): 101 % of control
T/C (dose: 30.0 mg/kg/injection, schedule: Q01DX005 (ip), vehicle: Klucel + Tween-80): 100 % of control
T/C (dose: 60.0 mg/kg/injection, schedule: Q01DX005 (ip), vehicle: Klucel + Tween-80): 98 % of control and 123 % of control
T/C (dose: 120.0 mg/kg/injection, schedule: Q01DX005 (ip), vehicle: Klucel + Tween-80): 110 % of control and 91 % of control
T/C (dose: 240.0 mg/kg/injection, schedule: Q01DX005 (ip), vehicle: Klucel + Tween-80): 100 % of control

O=C(O)c1cc(NCCO)c(C(=O)O)cc1NCCO
T/C (dose: 50.0 mg/kg/injection, schedule: Q01DX005 (ip), vehicle: saline): 97 % of control
T/C (dose: 100.0 mg/kg/injection, schedule: Q01DX005 (ip), vehicle: saline): 100 % of control
T/C (dose: 200.0 mg/kg/injection, schedule: Q01DX005 (ip), vehicle: saline): 91 % of control

C=CCC1OC(=O)CCNC(=O)C(C)N(C)C(=O)C(C(C)C)N(C)C(=O)C(C(C)CC)NC(=O)C2CCCN2C1=O (centres undefined) (cyclo([X9]PI[NMeV][NMeA][βAla]); configuration not given here)
T/C (dose: 1.56 mg/kg/injection, schedule: Q01DX005 (ip), vehicle: water): 94 % of control
T/C (dose: 3.12 mg/kg/injection, schedule: Q01DX005 (ip), vehicle: water): 95 % of control
T/C (dose: 6.25 mg/kg/injection, schedule: Q01DX005 (ip), vehicle: water): 101 % of control
T/C (dose: 12.5 mg/kg/injection, schedule: Q01DX005 (ip), vehicle: water): 104 % of control

CCC(C)C1NC(=O)C(NC(=O)c2c3nc4c(C(=O)NC5C(=O)NC(C(C)CC)C(=O)N6CCCC6C(=O)N(C)CC(=O)N(C)C(C(C)C)C(=O)OC5C)ccc(C)c4oc-3c(C)c(=O)c2Cl)C(C)OC(=O)C(C(C)C)N(C)C(=O)CN(C)C(=O)C2CCCN2C1=O (centres undefined)
T/C (dose: 0.05 mg/kg/injection, schedule: Q01DX009 (ip), vehicle: water): 92 % of control
T/C (dose: 0.1 mg/kg/injection, schedule: Q01DX009 (ip), vehicle: water): 96 % of control
T/C (dose: 0.2 mg/kg/injection, schedule: Q01DX009 (ip), vehicle: water): 99 % of control
T/C (dose: 0.4 mg/kg/injection, schedule: Q01DX009 (ip), vehicle: water): 102 % of control and 111 % of control
T/C (dose: 0.8 mg/kg/injection, schedule: Q01DX009 (ip), vehicle: water): 118 % of control
T/C (dose: 3.2 mg/kg/injection, schedule: Q01DX009 (ip), vehicle: water): 155 % of control
T/C (dose: 6.4 mg/kg/injection, schedule: Q01DX009 (ip), vehicle: water): 174 % of control

COC(=O)C1=COC(C)C2CN3CCc4c([nH]c5ccccc45)C3CC12 (centres undefined)
T/C [8]: 106 % of control
T/C (dose: 60.0 mg/kg/injection, schedule: Q01DX005 (ip), vehicle: saline with Tween-80): 100 % of control
T/C [9]: 106 % of control
T/C (dose: 120.0 mg/kg/injection, schedule: Q01DX005 (ip), vehicle: saline with Tween-80): 93 % of control
T/C (dose: 200.0 mg/kg/injection, schedule: Q01DX005 (ip), vehicle: saline with Tween-80): 100 % of control
T/C (dose: 240.0 mg/kg/injection, schedule: Q01DX005 (ip), vehicle: saline with Tween-80): 90 % of control

CC(=O)C[n+]1cccc(C)c1Sc1ccccc1
T/C [6]: 97 % of control
T/C [7]: 101 % of control
T/C [8]: 108 % of control and 94 % of control

O=C(O)C1CCCCC1Cc1ccccc1 (centres undefined)
T/C [10]: 109 % of control
T/C [4]: 98 % of control
T/C [5]: 93 % of control

COC1=C/C(=C\C=C\c2ccccc2)C(OC)=CC1=O
T/C (dose: 2.5 mg/kg/injection, schedule: Q01DX009 (ip), vehicle: saline with Tween-80): 102 % of control
T/C (dose: 5.0 mg/kg/injection, schedule: Q01DX009 (ip), vehicle: saline with Tween-80): 104 % of control
T/C (dose: 10.0 mg/kg/injection, schedule: Q01DX009 (ip), vehicle: saline with Tween-80): 108 % of control

CCCCOc1ccc(C(C)c2cc3c(cc2OC)OCO3)cc1 (centres undefined)
T/C (dose: 25.0 mg/kg/injection, schedule: Q01DX005 (ip), vehicle: Klucel (hydroxypropylcellulose) (HPC)): 107 % of control
T/C (dose: 50.0 mg/kg/injection, schedule: Q01DX005 (ip), vehicle: Klucel (hydroxypropylcellulose) (HPC)): 95 % of control
T/C (dose: 100.0 mg/kg/injection, schedule: Q01DX005 (ip), vehicle: Klucel (hydroxypropylcellulose) (HPC)): 101 % of control
T/C (dose: 200.0 mg/kg/injection, schedule: Q01DX005 (ip), vehicle: Klucel (hydroxypropylcellulose) (HPC)): 98 % of control

CC(C)(Oc1ccc(C(=O)c2ccc(Cl)cc2)cc1)C(=O)O
T/C [10]: 93 % of control
T/C [4]: 102 % of control
T/C [5]: 111 % of control

NC(CSc1nc2ccccn2c1[N+](=O)[O-])C(=O)O (centres undefined)
T/C (dose: 12.5 mg/kg/injection, schedule: Q01DX009 (ip), vehicle: Klucel (hydroxypropylcellulose) (HPC)): 98 % of control
T/C (dose: 25.0 mg/kg/injection, schedule: Q01DX009 (ip), vehicle: Klucel (hydroxypropylcellulose) (HPC)): 100 % of control
T/C [1]: 99 % of control and 100 % of control

CN1C=C([N+](=O)[O-])C(N2CCOCC2)C1N1CCOCC1 (centres undefined)
T/C (dose: 60.0 mg/kg/injection, schedule: Q01DX005 (ip), vehicle: Klucel (hydroxypropylcellulose) (HPC)): 96 % of control
T/C (dose: 120.0 mg/kg/injection, schedule: Q01DX005 (ip), vehicle: Klucel (hydroxypropylcellulose) (HPC)): 114 % of control

O=C1c2ccccc2CC1CS(=O)(=O)CC1Cc2ccccc2C1=O (centres undefined)
T/C (dose: 100.0 mg/kg/injection, schedule: Q04DX002 (ip), vehicle: saline): 100 % of control
T/C (dose: 200.0 mg/kg/injection, schedule: Q04DX002 (ip), vehicle: saline): 100 % of control
T/C (dose: 400.0 mg/kg/injection, schedule: Q04DX002 (ip), vehicle: saline): 91 % of control and 96 % of control
